PubChem BioAssay AID179 (DTP/NCI, 2004)
The source made the active and inactive calls.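 Rule for the calls: active = compounds giving half or more protection of infected cells from virus-caused growth loss, again on retest; inactive = the rest.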 Where a SMILES comes first, the peptide text is derived from it. [ ]: non-standard residue; d: D form. The star is where a group is joined. Nle = CCCC[CH](N)C(=O)O; Cbz = O=C(OCc1ccccc1)*; OBn = c1ccc(CO*)cc1

Tested on: CEM cells HIV-1 protection, formazan growth assay
Assay: NCI AIDS Antiviral Assay
Settings: for IC50: measured here: growth of uninfected CEM cells
Method in brief: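 Category rules: moderately active means at least 50% protection on retest, and confirmed active means 100% protection reproducibly. The underlying data came from a formazan growth assay in HIV-1-infected CEM cells.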

Compound | EC50 [µM] | IC50 [µM] | outcome
Cc1cc(N(CCC#N)S(=O)(=O)c2ccccc2)ccc1C=Nc1ccc(C(=O)O)cc1 | > 151 | 85.1 | –
CCCCCCCCCCCCCCCCCC1=Nc2ccccc2NC(=O)C1 | > 100 | > 100 | –
Cc1cccc(/C=N/NC(=S)NC2CCCCC2)n1 | > 200 | 10 | –
O=c1[nH][nH]c(=O)n1Cc1cccc(Cn2c(=O)[nH][nH]c2=O)c1 | > 200 | > 200 | –
O=C1C2C3C=CC(O3)C2C(=O)N1/N=C\C(O)C(O)C(O)C(O)CO (configuration not stated) | > 129 | > 129 | –
COc1ccc(C2N(c3ccc(F)c([N+](=O)[O-])c3)C(=O)N3C(c4ccc(OC)cc4)N(c4ccc(F)c([N+](=O)[O-])c4)C(=O)N23)cc1 (configuration not stated) | > 200 | 33.9 | –
O=C1CC(c2ccco2)C2(C(=O)NC(=O)NC2=O)C(c2ccco2)C1 (configuration not stated) | > 200 | > 200 | –
CCN(CC)CCOC(=O)c1ccc(N=NC2Sc3nc4ccccc4n3C2=O)cc1 (configuration not stated) | – | – | inactive
COC(=O)C(=O)C(C(=O)C=C(C)C)C(=O)C(=O)Nc1cc(C(F)(F)F)ccc1Cl (configuration not stated) | > 83.2 | > 83.2 | –
C1COC2(CNCC3(CNC2)OCCO3)O1 | > 200 | 174 | –
O=C1c2ccccc2C(=O)N1N1C(=O)C2C3CCC(O3)C2C1=O (configuration not stated) | > 200 | 95.5 | –
Cc1cccc2c1Oc1cc(Cl)ccc1C2NC(=O)CCN1CCCCC1 (configuration not stated) | > 200 | 11.2 | –
Cl/C(N=Nc1ccccc1)=N/Nc1ccccc1 | – | – | inactive
C(=Nc1cnc2ccccc2c1)c1cccnc1 | > 1070 | 195 | –
COc1cc(C2C3=C(COC3=O)OC(C)(C)Oc3cc4c(cc32)OCO4)cc(OC)c1OC (configuration not stated) | > 2 | 0.355 | –
CCOC(=O)C1C(c2ccc(Cl)cc2Cl)NC(c2ccc(C)cc2)C(C(=O)OC)S1(=O)=O (configuration not stated) | > 14.5 | > 14.5 | –
COC(=O)c1ccc(OCc2nc3ccccc3[nH]2)cc1 | > 200 | 75.9 | –
CCC(C)C(NC(=O)CNC(=O)C(C)NC(=O)CNC(=O)C(NC(=O)C(NC(=O)C(CO)NC(=O)C(Cc1cnc[nH]1)NC(=O)C(N)CCCCN)C(C)CC)C(C)CC)C(=O)NC(CCCCN)C(=O)NC(CCCCN)C(=O)NC(CCCN=C(N)N)C(=O)NC(Cc1ccccc1)C(=O)NC(CC(C)C)C(=O)NC(CCC(N)=O)C(=O)O (configuration not stated) (H-KHSIIGAGIKKRFLQ-OH; configuration not given here) | – | – | inactive
C/C(=N/NC(=S)Nc1ccccc1C)c1ccccn1 | > 0.2 | 0.0692 | –
COc1ccc2c(c1)OC[C@]1(C)c3cc(O)c(OCc4ccccc4)cc3O[C@H]21 | – | – | inactive

Compound | EC50 [µM] | IC50 [µM] | outcome
O=C1c2ccccc2-c2cccc3ccc(Cc4ccc5ccccc5c4)c1c23 | > 5.13 | > 5.13 | –
COCc1cc2c(cc1/C(=C/[N+](=O)[O-])CS(=O)(=O)c1ccccc1)OCO2 | > 200 | 102 | –
Cc1c(C)c2cc3c(cc2oc1=O)OCC3 | > 83.2 | 55 | –
CC(C)[C@@H](C)[C@@]1(C)C[C@@H]1[C@@H](C)[C@H]1CC[C@@H]([C@@H]2CC=C3C[C@@H](O)CC[C@]3(C)C2=O)[C@]1(C)CCO | > 200 | 8.51 | –
Cc1cc(Cl)c(O)c(C2(C(O)c3ccc(O)cc3)NC(=S)NC2=O)c1 (configuration not stated) | > 200 | 107 | –
CC(C)NCC(O)c1cc(OCc2ccccc2)c(OCc2ccccc2)cc1NC(=O)CCC(=O)O (configuration not stated) | > 200 | 1.58 | –
CCc1cccc(C)c1N1C(=O)C(=O)C(c2nc3ccccc3o2)/C(=N/NC(=S)NN)C1=O (configuration not stated) | – | – | inactive
COC1/C=C/OC2(C)Oc3c(C)c(O)c4c(O)c(c(C=NNC(=O)c5ccc(N)cc5)c(O)c4c3C2=O)NC(=O)/C(C)=C/C=C/C(C)C(O)C(C)C(O)C(C)C(OC(C)=O)C1C (configuration not stated) | > 138 | 107 | –
O=C(/C=C/c1ccc(O)c(O)c1)OCCc1cccc2ccccc12 | > 200 | 2.75 | –
COC(=O)c1ncn(C2CCCCC2)c1N | > 200 | > 200 | –
CC(C)(C)[Si](C)(C)OCC1OC(n2ccc(=O)[nH]c2=O)CC1(O)C/C=N/O (configuration not stated) | > 200 | 12.6 | –
O=C(CCc1nc(=S)[nH][nH]1)Nc1ccc(Cl)c(Cl)c1 | – | – | inactive
Cc1ccc(N2CN(c3ccc(C)cc3)CC(C)(N)C2)cc1 | > 200 | 24 | –
C=CCOC(C)(C)C1=CCC(C)CC1 (configuration not stated) | > 100 | > 100 | –
CCCCC(NC(=O)C1CCCN1C(=O)OCc1ccccc1)C(=O)OCc1ccccc1 (stereo not drawn) (Cbz-Pro-[Nle]-OBn; configuration not given here) | > 41.7 | > 41.7 | –
COc1cc(C(CC(C)=O)c2cc3c(cc2OC(C)=O)OCO3)cc(OC)c1OC (configuration not stated) (tested in a mixture with another compound) | > 105 | 0.135 | –
Nc1ccc2c(O)c(N=Nc3ccc(N=Nc4ccc(S(=O)(=O)O)cc4)cc3)c(S(=O)(=O)O)cc2c1N=Nc1ccc(N=Nc2ccc(S(=O)(=O)O)cc2)cc1 | – | – | active
COc1ccc(/C=C2\C=C3OCOC3=CC2=O)cc1 | > 10.7 | > 10.7 | –
COc1cccc(/C=C2\SC(=S)N(/C=C3\C(=O)Oc4ccccc4C3=O)C2=O)c1O | > 200 | 70.8 | –
Cn1c(N)c(/C=C/C(=O)Oc2ccccc2)c(=O)n(C)c1=O | – | – | inactive
